Data taken from patent US20250236627A1, “CERTAIN OCTAHYDROFURO[3,4- B]PYRAZINES AS GLP-1 RECEPTOR MODULATORS” (ASTRAZENECA AB, priority 2021, published 2025).
pEC50: −log10 of the molar value.

Experiments:
human GLP-1R receptor = biological target: T1, human GLP-1R receptor (Homo sapiens, UniProt P43220, L260F); experiment: CHOK1 GLP-1R cAMP Assay; type: cell-based; settings: CHO-K1 cell line stably expressing human GLP-1R; HTRF cAMP detection
T1 construct: expressed in transfected cells; host or cells: CHO-K1 (ATCC CCL-61)
T1 sequence (P43220 24-463 L260F): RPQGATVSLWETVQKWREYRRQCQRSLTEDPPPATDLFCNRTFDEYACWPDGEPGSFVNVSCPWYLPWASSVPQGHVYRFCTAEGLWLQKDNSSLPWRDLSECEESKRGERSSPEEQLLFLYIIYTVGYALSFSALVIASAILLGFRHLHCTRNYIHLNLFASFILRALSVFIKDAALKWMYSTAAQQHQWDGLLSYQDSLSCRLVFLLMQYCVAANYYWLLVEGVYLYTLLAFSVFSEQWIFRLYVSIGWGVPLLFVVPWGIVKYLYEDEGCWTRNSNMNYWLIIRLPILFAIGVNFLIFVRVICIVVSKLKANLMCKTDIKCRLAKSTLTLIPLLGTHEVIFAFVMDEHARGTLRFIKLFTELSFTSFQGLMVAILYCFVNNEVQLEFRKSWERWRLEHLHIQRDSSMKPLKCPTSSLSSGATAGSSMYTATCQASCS
Protocol: A cell line stably expressing the human GLP-1R receptor (NM_002062.5, including the naturally-occurring variant Leu260Phe) in a CHO-K1 (ATCC® CCL-61™) was used for assay.
GLP-1 Receptor mediated agonist activity was determined in a cell based assay measuring cAMP levels in cells using Homogeneous Time-Resolved Fluorescence (HTRF) cAMP detection kit (CisBio catalog #62AM4PEC, cAMP Gs Dynamic range kit). The cAMP detection method is based on a competitive immunoassay, in which cAMP produced by the cells and cAMP labeled with the dye d2 compete for binding to a Europium-Cryptate-labeled anti-cAMP antibody. The specific HTRF signal is inversely proportional to the concentration of cAMP.
Compounds were added to individual well in 384 well-assay plates (Greiner #784076) using an Echo (LabCyte) dispenser from 10 mM stocks. Varying concentration of compounds were added to wells, and dimethyl sulfoxide was used to normalize each well to a volume of 100 nanoliter. A dose response curve of GLP1(7-36)NH2 (Bachem H-6795) was included in each run. 5 μL of cAMP concentration response standards are applied in specified wells in the assay plates.
Cryo-preserved cells are thawed and resuspended in assay buffer pre-heated to 37° C. (20 mM 2-[4-(2-hydroxyethyl)piperazin-1-yl]ethanesulfonic acid (HEPES) pH 7.4, lx Hank's Balanced Salt Solution (HBSS, Life Technologies #14065) supplemented with 0.1% (w/v) bovine serum albumin (Sigma, A-7030)). Cells were centrifuged at 250*g for 5 min at room temperature, and resuspend in room tempered assay buffer to a final density of 0.16*10^6 cell/mL, to deliver 800 cells/well. 5 μL of assay buffer with 1 mM 3-isobutyl-1-methylxanthin (IBMX; Sigma cat I-7018) was dispensed per well in assay plates using a multidrop combi (Thermo Scientific) subsequently 5 μL of cell suspension was distributed to relevant wells in the assay using a multidrop dispenser. Assay plates were incubated 20 min at room temperature.
Detection reagents, Europium-Cryptate-labeled anti-cAMP antibody and cAMP labeled with the dye d2, are diluted in lysis buffer, provided by the manufacturer. 5 μL of each detection reagent is supplemented to each assay well using a multidrop dispenser. Assay plates are incubated in the dark for at least one hour. The HTRF signal is measured using the HTRF module (excitation: 337 nm, emission A: 665 nm and emission B: 620 nm) in Pherastar FSX (BMG Labtech).
Raw data were converted to pM cAMP using the cAMP standard curve included in each run. Converted data were further analyzed in Genedata Screener (Genedata) and EC50 determinations were made from agonist dose-response curves analyzed with a curve fitting program using a 4-parameter logistic dose response equation (Equation y=A+((B−A)/1+((C/x)^D))) where A is no stimulation, B is full stimulation, C is the EC50 and D is the Hill slope). The percent effect was determined relative to a saturating concentration of a full GLP-1R agonist (GLP1(7-36)NH2 has 100% effect in this assay setup).

[1] = biological target: T2, endogenous human glucagon-like peptide 1 receptor (GLP-1R) (Homo sapiens, UniProt P43220); experiment: EndoC cAMP Accumulation Assay; type: cell-based; settings: EndoC-βH1 human pancreatic β cell line; HTRF cAMP assay
T2 construct: endogenous human glucagon-like peptide 1 receptor (GLP-1R) in a pancreatic insulinoma cell line; host or cells: EndoC-βH1 human pancreatic β cell line
T2 sequence (P43220 24-463): as the sequence (P43220 24-463 L260F) above, with F237L counted along it
Excerpt: EndoC cAMP Accumulation Assay
A HTRF (Homogeneous Time-Resolved Fluorescence) cAMP assay (cAMP Gs dynamic kit; CisoBio Cat #62AM4PEJ) was used to identify agonists of the endogenous human glucagon-like peptide 1 receptor (GLP-1R) in a pancreatic insulinoma cell line (EndoC-βH1). […] EndoC-βH1 cells have detectable GLP-1R mRNA as detected by qPCR^1. […] The EndoC-βH1 cell line is a valid model of human beta cells and applicable for screenings to identify novel drug target candidates (Mol. Metab., 2018, 8, 144-157). CisBio HTRF cAMP kits are based on a competitive immunoassay using cryptate-labelled anti-cAMP antibody and d2-labeled cAMP. The detection kit is intended for the direct quantitative determination of cAMP. The specific signal (i.e. energy transfer) is inversely proportional to the concentration of cAMP in the standard or sample. Test compounds (10 mM in DMSO) were diluted into assay buffer (HBSS (Sigma #H8264) supplemented with 25 mM HEPES (Gibco #15630, pH 7.4), 0.1% BSA (Sigma #A3059) and 0.5 mM IBMX (Sigma #I7018) included fresh on the day of the assay) into 96 well U-bottom plates (Greiner #650201). Diluted compounds were transferred to ECHO source PP plates (Labcyte #P-05525) and dose response curves were dispensed acoustically using ECHO 550 into black shallow-well u-bottom 384-well HTRF Assay Plates (Corning 4514).
Cryovials of EndoC-H1 (supplied at 1×10e^7 cells/vial) were used directly for screening. The cryovials and were removed from LN2 and thawed rapidly in a 37° C. water bath. The cells were resuspended in assay buffer and centrifuged at 300 g for 5 min. Cells were resuspended in assay buffer at the appropriate concentration, typically at 12e5 cells per mL (3000 cells per well, dependent on cell batch) and 2.5 μL diluted cells were added to all wells of destination plate by Multidrop combi reagent dispenser (Thermofisher). The plates were incubated at room temperature for 30 min. The assay was stopped by adding 2.5 μL anti-cAMP cryptate solution to all wells and 2.5 μL cAMP-d2 solution (both diluted 1:20 in lysis buffer) to columns 1-22 by Combi drop. A volume of 2.5 μL cAMP-d2 solution was added to wells E23 to P24 and 2.5 μL lysis buffer added to wells A23 to D24 by multichannel pipette. The plates were incubated at room temperature for 1 hr and read on an Envision plate reader using excitation wavelength of 320 nm and emission of 590 nm and 660 nm.
Raw data from Envision is converted to % DeltaF according to the manufacturer's instructions. Dose response curves are analysed via 4-Parameter Logistical Analysis and assay plate Z′ values obtained. Samples are graphed as percentage (%) activation plots compared to GIP (1-42, Bachem H-5645) with assay window defined by negative control as basal cell cAMP levels and positive control are defined by maximum GIP (82.5 nM) signal. GLP1 (7-36 amide, Bachem H-6795) dose response curve was included on all plates.

Row | SMILES | pEC50 (human GLP-1R receptor) | pEC50 [1]
1 | C[C@]1(c2ccc(Cl)cn2)Oc2cccc(N3CCN(Cc4nc5ccc(C(=O)O)cc5n4C[C@@H]4CCO4)[C@H]4COC[C@H]43)c2O1 (single isomer, unassigned) [Example 5c, 2-(((4aR*,7aS*)-4-((R*)-2-(5-Chloropyridin-2-yl)-2-methylbenzo[d][1,3]dioxol-4-yl)hexahydrofuro[3,4-b]pyrazin-1(2H)-yl)methyl)-1-(((S)-oxetan-2-yl)methyl)-1H-benzo[d]imidazole-6-carboxylic acid] | 7.00 | 6.21
2 | C[C@]1(c2ccc(Cl)cn2)Oc2cccc(N3CCN(Cc4nc5ccc(C(=O)O)cc5n4C[C@@H]4CCO4)[C@H]4COC[C@H]43)c2O1 (single isomer, unassigned) [Example 5d, 2-(((4aR*,7aS*)-4-((R*)-2-(5-Chloropyridin-2-yl)-2-methylbenzo[d][1,3]dioxol-4-yl)hexahydrofuro[3,4-b]pyrazin-1(2H)-yl)methyl)-1-(((S)-oxetan-2-yl)methyl)-1H-benzo[d]imidazole-6-carboxylic acid] | 6.48 | 5.68
3 | C[C@]1(c2ccc(Cl)cc2F)Oc2cccc(N3CCN(Cc4nc5ccc(C(=O)O)cc5n4C[C@@H]4CCO4)[C@H]4COC[C@H]43)c2O1 (single isomer, unassigned) [Example 6d, 2-(((4aR*,7aS*)-4-((R*)-2-(4-Chloro-2-fluorophenyl)-2-methylbenzo[d][1,3]dioxol-4-yl)hexahydrofuro[3,4-b]pyrazin-1(2H)-yl)methyl)-1-(((S)-oxetan-2-yl)methyl)-1H-benzo[d]imidazole-6-carboxylic acid] | 6.28 | 5.96
4 | C[C@]1(c2ccc(Cl)cc2F)Oc2cccc(N3CCN(Cc4nc5ccc(C(=O)O)cc5n4CCn4cccn4)[C@H]4COC[C@H]43)c2O1 (single isomer, unassigned) [Example 7c] | 6.96 | 5.41
5 | C[C@]1(c2ccc(Cl)cn2)Oc2cccc(N3CCN(Cc4nc5ccc(C(=O)O)cc5n4C[C@@H]4CCCO4)[C@H]4COC[C@H]43)c2O1 (single isomer, unassigned) [Example 8b, 2-(((4aR*,7aS*)-4-((R*)-2-(5-Chloropyridin-2-yl)-2-methylbenzo[d][1,3]dioxol-4-yl)hexahydrofuro[3,4-b]pyrazin-1(2H)-yl)methyl)-1-(((S)-tetrahydrofuran-2-yl)methyl)-1H-benzo[d]imidazole-6-carboxylic acid] | 6.28 | 5.96
6 | C[C@]1(c2ccc(Cl)cn2)Oc2cccc(N3CCN(Cc4nc5c(F)cc(C(=O)O)cc5n4C[C@@H]4CCO4)[C@H]4COC[C@H]43)c2O1 (single isomer, unassigned) [Example 9b, 2-((4aR*,7aS*)-4-((R*)-2-(5-Chloropyridin-2-yl)-2-methylbenzo[d][1,3]dioxol-4-yl)hexahydrofuro[3,4-b]pyrazin-1(2H)-yl)methyl)-4-fluoro-1-(((S)-oxetan-2-yl)methyl)-1H-benzo[d]imidazole-6-carboxylic acid] | 6.74 | 6.18

These reach a higher pEC50 (human GLP-1R receptor). Values come first.

Row | pEC50 (human GLP-1R receptor) | pEC50 [1] | SMILES
7 | 7.10 | 6.89 | C[C@]1(c2ccc(Cl)cn2)Oc2cccc(N3CCN(Cc4nc5c(Cl)cc(C(=O)O)cc5n4C[C@@H]4CCCO4)[C@H]4COC[C@H]43)c2O1 (single isomer, unassigned) [Example 4b, 4-Chloro-2-(((4aR*,7aS*)-4-((R*)-2-(5-chloropyridin-2-yl)-2-methylbenzo[d][1,3]dioxol-4-yl)hexahydrofuro[3,4-b]pyrazin-1(2H)-yl)methyl)-1-(((S)-tetrahydrofuran-2-yl)methyl)-1H-benzo[d]imidazole-6-carboxylic acid]
8 | 7.27 | 6.52 | C[C@]1(c2ccc(Cl)cc2F)Oc2cccc(N3CCN(Cc4nc5ccc(C(=O)O)cc5n4C[C@@H]4CCO4)[C@H]4COC[C@H]43)c2O1 (single isomer, unassigned) [Example 6b, 2-(((4aR*,7aS*)-4-((R*)-2-(4-Chloro-2-fluorophenyl)-2-methylbenzo[d][1,3]dioxol-4-yl)hexahydrofuro[3,4-b]pyrazin-1(2H)-yl)methyl)-1-(((S)-oxetan-2-yl)methyl)-1H-benzo[d]imidazole-6-carboxylic acid]
9 | 7.34 | 7.72 | C[C@]1(c2ccc(Cl)cc2F)Oc2cccc(N3CCN(Cc4nc5ccc(C(=O)O)cc5n4CCn4cccn4)[C@H]4COC[C@H]43)c2O1 (single isomer, unassigned) [Example 7a]
10 | 7.41 | 6.82 | C[C@]1(c2ccc(Cl)cc2F)Oc2cccc(N3CCN(Cc4nc5ccc(C(=O)O)cc5n4C[C@@H]4CCO4)[C@H]4COC[C@H]43)c2O1 (single isomer, unassigned) [Example 6c, 2-(((4aR*,7aS*)-4-((R*)-2-(4-Chloro-2-fluorophenyl)-2-methylbenzo[d][1,3]dioxol-4-yl)hexahydrofuro[3,4-b]pyrazin-1(2H)-yl)methyl)-1-(((S)-oxetan-2-yl)methyl)-1H-benzo[d]imidazole-6-carboxylic acid]
11 | 8.29 | 8.34 | C[C@]1(c2ccc(Cl)cn2)Oc2cccc(N3CCN(Cc4nc5c(Cl)cc(C(=O)O)cc5n4C[C@@H]4CCCO4)[C@H]4COC[C@H]43)c2O1 (single isomer, unassigned) [Example 4a, 4-Chloro-2-(((4aR*,7aS*)-4-((R*)-2-(5-chloropyridin-2-yl)-2-methylbenzo[d][1,3]dioxol-4-yl)hexahydrofuro[3,4-b]pyrazin-1(2H)-yl)methyl)-1-(((S)-tetrahydrofuran-2-yl)methyl)-1H-benzo[d]imidazole-6-carboxylic acid]
